{
  "source": "patent US10941120B1",
  "about": "“6-aminouracil cassic acid ester with antibacterial activity and a method of preparing the same” (SHAANXI UNIVERSITY OF SCIENCE AND TECHNOLOGY, priority 2020, dated 2021)",
  "format_in_all_cases": "cell-based",
  "key": {"[1]": {"system": "carbapenem-resistant Acinetobacter baumannii CR-AB 18-183", "experiment": "MIC by microbroth dilution, CR-AB 18-183", "text": "(§1) The minimal inhibitory concentration (MIC) of the compounds as determined by a microbroth dilution method with gentamicin, cefazolin sodium and ceftriaxone sodium as positive control.\n(§2) The experimental strains included methicillin-resistant Gram-positive bacteria: methicillin-resistant Staphylococcus aureus MRSA 18-222, 18-575; multiple drug-resistant […] bacteria: vancomycin-resistant enterococci VRE 18-80, 18-94; multidrug-resistant Pseudomonas aeruginosa MDR-PA 18-1774, 18-202; carbapenem-resistant Acinetobacter baumannii CR-AB 18-183, 18-560. All the experimental strains were donated by Huashan Hospital affiliated to Fudan University (Institute of Antibiotics, Fudan University) and used after routine identification.\n(§3) Preparation of Test Strains:\n(§4) Preparation of MHB medium: 20.0 g MHB medium was added to 1 L distilled water, boiled until completely dissolved, packed in conical bottles and sterilized at 121° C. for 15 min.\n(§5) The experimental strain was cultured to the logarithmic growth phase: under aseptic condition, the experimental strain was inoculated into 100 mL NMB medium and incubated in a constant temperature and humidity incubator at 37° C. for 20-22 hours.\n(§6) Preparation of storage solution: weigh the sample to be tested, dissolve it with 1% DMSO solution, prepare a storage solution with a concentration of 2560 μg/mL, weigh a positive reference substance, dissolve it with aseptic distilled water, and configure a storage solution with a concentration of 2560 μg/mL.\n(§7) Preparation of bacterial suspension: under aseptic condition, the experimental strains cultured to logarithmic growth phase were adjusted to 0.5 MCF turbidity standard with MHB medium and diluted according to 1:10, and the bacterial suspension with concentration of 10^6 CFU/mL was prepared for standby.\n(§8) Dilution of storage solution and inoculation of experimental strain: under aseptic condition, the storage solution was diluted to 256 μg/mL solution. Take a sterile 96-well plate, add 200 μL MHB medium to the 12th well, and add 100 μL MHB medium to each well. Add 100 μL of positive control solution to the first well, mix well, and suck 100 μL from it and discard. Add 100 μL of the compound sample solution to the second well, mix well, and then pipette 100 μL to the third well. After mixing, pipette 100 μL to the fourth well, and dilute to the 11th well in this way. Finally, 100 μL was pipetted from the 11th well and discarded. The 12th hole was the growth control without drugs. So far, the concentration of the positive reference substance is 128 μg/mL, the concentrations of the sample solution are 128, 64, 16, 8, 4, 2, 1, 0.5, 0.25 μg/mL respectively. Then, 100 μL of the prepared bacterial suspension is added to each well, so that the final concentration of the bacterial liquid in each well is 5×10^5 CFU/mL.\n(§9) Incubation: Cover the 96-well plate inoculated with the experimental strains, and incubate in a constant temperature and humidity box at 37° C. for 20-22 hours."}, "[2]": {"system": "carbapenem-resistant Acinetobacter baumannii CR-AB 18-560", "experiment": "MIC by microbroth dilution, CR-AB 18-560", "text": "as §1, §2, §3, §4, §5, §6, §7, §8, §9"}, "[3]": {"system": "vancomycin-resistant enterococci VRE 18-94", "experiment": "MIC by microbroth dilution, VRE 18-94", "conditions": "for Minimum bacteriostatic concentration: VRE 18-94", "text": "as §1, §2, §3, §4, §5, §6, §7, §8, §9"}, "[4]": {"system": "vancomycin-resistant enterococci VRE 18-80", "experiment": "MIC by microbroth dilution, VRE 18-80", "text": "as §1, §2, §3, §4, §5, §6, §7, §8, §9"}, "[5]": {"system": "methicillin-resistant Staphylococcus aureus MRSA 18-222", "experiment": "MIC by microbroth dilution, MRSA 18-222", "text": "as §1, §2, §3, §4, §5, §6, §7, §8, §9"}, "[6]": {"system": "multidrug-resistant Pseudomonas aeruginosa MDR-PA 18-174", "experiment": "MIC by microbroth dilution, MDR-PA 18-174", "conditions": "for Minimum bacteriostatic concentration: MDR-PA 18-174", "text": "as §1, §2, §3, §4, §5, §6, §7, §8, §9\nIn FIGS. 1-6, the twelve wells represent twelve groups, from left to right, positive, 128 μg/mL, 64 μg/mL, 32 μg/mL, 16 μg/mL, 8 μg/mL, 4 μg/mL, 2 μg/mL, 1 μg/mL, 0.25 μg/mL, 0.0625 μg/mL, Negative."}, "[7]": {"system": "multidrug-resistant Pseudomonas aeruginosa MDR-PA 18-202", "experiment": "MIC by microbroth dilution, MDR-PA 18-202", "text": "as §1, §2, §3, §4, §5, §6, §7, §8, §9"}, "[8]": {"system": "methicillin-resistant Staphylococcus aureus MRSA 18-575", "experiment": "MIC by microbroth dilution, MRSA 18-575", "text": "as §1, §2, §3, §4, §5, §6, §7, §8, §9"}, "drug-resistant bacteria": {"system": "drug-resistant bacteria", "experiment": "Antibacterial activity test, whole panel of drug-resistant strains", "conditions": "all tested strains, summary in words", "text": "as §1, §2, §3, §4\nThe experimental strain was cultured to the logarithmic growth phase: under aseptic condition, the experimental strain was inoculated into 100 mL NMB medium and incubated in a constant temperature and humidity incubator at 37° C. for 20-22 hours. […]"}},
  "data": [
    {"compound": "O=C(Nc1cc(=O)[nH]c(=O)[nH]1)c1cc(O)c2c(c1)C(=O)c1cccc(O)c1C2=O", "note": "[6-Aminouracil cassic acid ester, N-(2,6-dioxo-1,2,3,6-tetrahydropyrimidin-4-yl)-4,5-dihydroxy-9,10-dioxo-9,10-dihydroanthracene-2-carboxamide]", "values": [
      {"measurement": "Minimum bacteriostatic concentration", "setting": "[1]", "value": ">128", "unit": "µg/mL"},
      {"measurement": "Minimum bacteriostatic concentration", "setting": "[2]", "value": ">128", "unit": "µg/mL"},
      {"measurement": "Minimum bacteriostatic concentration", "setting": "[3]", "value": 64, "unit": "µg/mL"},
      {"measurement": "MIC", "setting": "[3]; vancomycin resistant Enterococcus VRE, strain not given", "value": 64, "unit": "µg/mL"},
      {"measurement": "Minimum bacteriostatic concentration", "setting": "[4]", "value": ">128", "unit": "µg/mL"},
      {"measurement": "Minimum bacteriostatic concentration", "setting": "[5]", "value": ">128", "unit": "µg/mL"},
      {"measurement": "Minimum bacteriostatic concentration", "setting": "[6]", "value": 128, "unit": "µg/mL"},
      {"measurement": "MIC", "setting": "[6]; multi-drug resistant Pseudomonas aeruginosa MDR-PA, strain not given", "value": 128, "unit": "µg/mL"},
      {"measurement": "Minimum bacteriostatic concentration", "setting": "[7]", "value": ">128", "unit": "µg/mL"},
      {"measurement": "Minimum bacteriostatic concentration", "setting": "[8]", "value": ">128", "unit": "µg/mL"}
    ]},
    {"compound": "Nc1cc(=O)[nH]c(=O)[nH]1", "note": "[6-Aminouracil]", "values": [
      {"measurement": "Minimum bacteriostatic concentration", "setting": "[1]", "value": ">128", "unit": "µg/mL"},
      {"measurement": "Minimum bacteriostatic concentration", "setting": "[2]", "value": ">128", "unit": "µg/mL"},
      {"measurement": "Minimum bacteriostatic concentration", "setting": "[3]", "value": ">128", "unit": "µg/mL"},
      {"measurement": "Minimum bacteriostatic concentration", "setting": "[4]", "value": ">128", "unit": "µg/mL"},
      {"measurement": "Minimum bacteriostatic concentration", "setting": "[5]", "value": ">128", "unit": "µg/mL"},
      {"measurement": "inhibitory effect on drug-resistant bacteria", "setting": "drug-resistant bacteria", "value": "no inhibitory effect"},
      {"measurement": "Minimum bacteriostatic concentration", "setting": "[6]", "value": ">128", "unit": "µg/mL"},
      {"measurement": "Minimum bacteriostatic concentration", "setting": "[7]", "value": ">128", "unit": "µg/mL"},
      {"measurement": "Minimum bacteriostatic concentration", "setting": "[8]", "value": ">128", "unit": "µg/mL"}
    ]},
    {"compound": "O=C(O)c1cc(O)c2c(c1)C(=O)c1cccc(O)c1C2=O", "note": "[Cassic acid]", "values": [
      {"measurement": "Minimum bacteriostatic concentration", "setting": "[1]", "value": ">128", "unit": "µg/mL"},
      {"measurement": "Minimum bacteriostatic concentration", "setting": "[2]", "value": ">128", "unit": "µg/mL"},
      {"measurement": "Minimum bacteriostatic concentration", "setting": "[3]", "value": ">128", "unit": "µg/mL"},
      {"measurement": "Minimum bacteriostatic concentration", "setting": "[4]", "value": ">128", "unit": "µg/mL"},
      {"measurement": "Minimum bacteriostatic concentration", "setting": "[5]", "value": ">128", "unit": "µg/mL"},
      {"measurement": "inhibitory effect on drug-resistant bacteria", "setting": "drug-resistant bacteria", "value": "no inhibitory effect"},
      {"measurement": "Minimum bacteriostatic concentration", "setting": "[6]", "value": ">128", "unit": "µg/mL"},
      {"measurement": "Minimum bacteriostatic concentration", "setting": "[7]", "value": ">128", "unit": "µg/mL"},
      {"measurement": "Minimum bacteriostatic concentration", "setting": "[8]", "value": ">128", "unit": "µg/mL"}
    ]},
    {"compound": "Cc1nnc(SCC2=C(C(=O)O)N3C(=O)[C@@H](NC(=O)Cn4cnnn4)[C@H]3SC2)s1", "note": "[Cefazolin sodium, cefazolin sodium]", "values": [
      {"measurement": "Minimum bacteriostatic concentration", "setting": "[1]", "value": ">128", "unit": "µg/mL"},
      {"measurement": "Minimum bacteriostatic concentration", "setting": "[2]", "value": ">128", "unit": "µg/mL"},
      {"measurement": "Minimum bacteriostatic concentration", "setting": "[3]", "value": ">128", "unit": "µg/mL"},
      {"measurement": "Minimum bacteriostatic concentration", "setting": "[4]", "value": 32, "unit": "µg/mL"},
      {"measurement": "Minimum bacteriostatic concentration", "setting": "[5]", "value": ">128", "unit": "µg/mL"},
      {"measurement": "Minimum bacteriostatic concentration", "setting": "[6]", "value": 8, "unit": "µg/mL"},
      {"measurement": "Minimum bacteriostatic concentration", "setting": "[7]", "value": 128, "unit": "µg/mL"},
      {"measurement": "Minimum bacteriostatic concentration", "setting": "[8]", "value": ">128", "unit": "µg/mL"}
    ]},
    {"compound": "CO/N=C(\\C(=O)N[C@@H]1C(=O)N2C(C(=O)O)=C(CSc3nc(=O)c(=O)[nH]n3C)CS[C@H]12)c1csc(N)n1", "note": "[Ceftriaxone sodium, ceftriaxone sodium]", "values": [
      {"measurement": "Minimum bacteriostatic concentration", "setting": "[1]", "value": ">128", "unit": "µg/mL"},
      {"measurement": "Minimum bacteriostatic concentration", "setting": "[2]", "value": ">128", "unit": "µg/mL"},
      {"measurement": "Minimum bacteriostatic concentration", "setting": "[3]", "value": ">128", "unit": "µg/mL"},
      {"measurement": "Minimum bacteriostatic concentration", "setting": "[4]", "value": 8, "unit": "µg/mL"},
      {"measurement": "Minimum bacteriostatic concentration", "setting": "[5]", "value": ">128", "unit": "µg/mL"},
      {"measurement": "Minimum bacteriostatic concentration", "setting": "[6]", "value": 128, "unit": "µg/mL"},
      {"measurement": "Minimum bacteriostatic concentration", "setting": "[7]", "value": 16, "unit": "µg/mL"},
      {"measurement": "Minimum bacteriostatic concentration", "setting": "[8]", "value": ">128", "unit": "µg/mL"}
    ]},
    {"compound": "gentamicin", "values": [
      {"measurement": "Minimum bacteriostatic concentration", "setting": "[1]", "value": ">128", "unit": "µg/mL"},
      {"measurement": "Minimum bacteriostatic concentration", "setting": "[2]", "value": ">128", "unit": "µg/mL"},
      {"measurement": "Minimum bacteriostatic concentration", "setting": "[3]", "value": ">128", "unit": "µg/mL"},
      {"measurement": "Minimum bacteriostatic concentration", "setting": "[4]", "value": 0.0625, "unit": "µg/mL"},
      {"measurement": "Minimum bacteriostatic concentration", "setting": "[5]", "value": 128, "unit": "µg/mL"},
      {"measurement": "Minimum bacteriostatic concentration", "setting": "[6]", "value": 0.0625, "unit": "µg/mL"},
      {"measurement": "Minimum bacteriostatic concentration", "setting": "[7]", "value": 0.0625, "unit": "µg/mL"},
      {"measurement": "Minimum bacteriostatic concentration", "setting": "[8]", "value": 2, "unit": "µg/mL"}
    ]}
  ]
}
